Experimental findings from EP0115547B1 (priority 1983, dated 1984) are described below.

This series has as its system T7-Phagen. The conditions noted are these: pH 7.

Molecules are shown by their SMILES.

Take `CS(=O)(=O)OCCNCC(O)C(O)CNCCOS(C)(=O)=O` (stereo not shown) [1,4-Di-{2'-(methylsulfonyl)-oxy-äthylamino}-1,4-di-{desoxy}-ery-thrit-dimethylsulfat]: the “Kehrwert der pyrimidin-dimeräquivalenten Dosis” value is 111 1 Mol . Minute.
Take `CN(Cc1cnc2nc(N)nc(N)c2n1)c1ccc(C(=O)N[C@@H](CCC(=O)O)C(=O)O)cc1` [4-Desoxy-4-amino-10-methylfolsäure]: the “Kehrwert der pyrimidin-dimeräquivalenten Dosis” value is 11 1 Mol . Minute.
On the same count and under the same terms, next, `CC(=O)N1CC1` [N-(Acetyl)-äthylenimin]: 33 1 Mol . Minute; `CN(N=O)C(N)=O` [Nitrosomethylharnstoff]: 0,76 1 Mol . Minute.
Turning to `Cc1ncc(C[n+]2csc(CCO)c2C)c(N)n1` [Vitamin B1], the “1n [N(t)/N(O)]=-1 zugehörige Bebrütungs- beziehungsweise Inkubationszeit” value is listed as 291 Minuten, the “Kehrwert der pyrimidindimeräquivalenten Dosis” value is on record as 0,03 l/Mol· Minute and the “pyrimidindimeräquivalente Dosis” value amounted to 29 Mol - Minute/I.
